Laboratory results: publication PMC12340956, “Tranylcypromine-Based LSD1 Inhibitors as Useful Agents to Reduce Viability of” (ACS Infectious Diseases, 2025)
Like-named read-outs stand apart in the source and are kept apart here.

How the values were obtained:
[1] = system: newly transformed schistosomula (NTS); test: NTS viability phenotypic screening, 72 h; conditions: for IC50: Schistosoma mansoni, read-out: IC50 (NTS viability)
[2] = system: human recombinant LSD1-CoREST enzymatic complex; conditions: Table S1, cited from earlier work
[3] = MTT cytotoxicity in RPE cells; type: cell-based; conditions: human, retinal pigment epithelial (RPE) cells; for viability at 72 h, 5 µM / viability at 72 h, 10 µM / viability at 72 h, 25 µM / viability at 72 h, 50 µM: read-out: percentage of viability, 72 h; for IC50 at 72 h: read-out: IC50 (cell viability)
Experimental: (§1) The MTT method was used to evaluate cell viability after 72 h of treatment.
(§2) Human commercial lung diploid fibroblasts (MRC-5), and diploid retinal epithelium cells (RPE) were obtained from the American Type Culture Collection (ATCC) and kindly provided by Dr Francesca Degrassi (CNR IBPM) and maintained in minimal essential medium or DMEM-F12 medium supplemented with fetal calf serum, antibiotics, and nonessential amino acids. Cells were grown at 37 °C, in a humidified atmosphere, with 5% CO2. For experiments, cells were seeded in 200 μL of complete in each well of a 96-well microtiter plate. After 24 h, compounds were added at 5, 10, 25, and 50 μM for 72 h in sextuplicate. MTT was added (0.5 mg/mL), incubated for 4 h at 37 °C, and dissolved in 200 μL of isopropyl alcohol. Absorbance was measured at 570 nm (ELISA reader, DASIT), and cell viability was calculated as viability=(ODoftreatedcells/ODofcontrolcells)×100

NTS = test: Speed-of-action assay in NTS; type: cell-based, Schistosoma mansoni; conditions: for Percentage of effect: NTS; for IC50: Schistosoma mansoni, read-out: IC50 (speed of action, NTS)
Source text: (§3) To better characterize a selection of our LSD1i in vitro, we assessed the onset of their action, defined as the time required for an observable antischistosomal effect. […] For detailed percentages of activity at each time point, refer to the Supporting Information (Tables S2 and S3 in Supporting Information).

adult worms [4] = test: Pairing and egg laying of adult worms; type: cell-based, Schistosoma mansoni; conditions: for eggs' number: 20 μM
Experimental: Selected compounds 2, 15, 18, and 19 were tested on adult worms to evaluate their effects on pairing and egg laying.

[5] = MTT cytotoxicity in MRC-5 cells; type: cell-based; conditions: human, MRC-5 lung diploid fibroblast cells; for viability at 72 h, 5 µM / viability at 72 h, 10 µM / viability at 72 h, 25 µM / viability at 72 h, 50 µM: read-out: percentage of viability, 72 h; for IC50 at 72 h: read-out: IC50 (cell viability)
Experimental: as §1, §2

[6] = system: S. mansoni juvenile forms; test: Speed-of-action assay in juvenile forms; type: cell-based, Schistosoma mansoni; conditions: for IC50: Schistosoma mansoni, read-out: IC50 (speed of action, juvenile forms); for Percentage of effect: juvenile forms
Source text: as §3

adult worms [7] = test: Adult worm viability phenotypic assay, 72 h; conditions: Schistosoma mansoni, read-out: IC50 (adult worm viability)
[8] = ref 2 (SI: Fioravanti et al., ChemMedChem 2020)
[9] = ref 3 (SI: Fioravanti et al., J Enzyme Inhib Med Chem 2022)
[10] = ref 4 (SI: Rodriguez et al., MedChemComm 2015)

With `NC1CC1c1ccc(NC(=O)c2ccc(O)c3ncccc23)cc1` (stereo not drawn) [Compound 1] the “Percentage of reduction of NTS viability, 72 h” value (from here on “Percentage of reduction … 72 h”) ([1]; 10 μM) was 37.9 ± 0.0%, the “Percentage of reduction … 72 h” value ([1]; 20 μM) was 45.8 ± 4.2% and the IC50 [1] was greater than 20 µM. The IC50 ([2]; ref 1 (SI: Rotili et al., J Med Chem 2014)) was less than 1 µM.
Compound `NC1CC1c1ccc(NC(=O)c2ccc(-c3ccccc3)cc2)cc1` (stereo not drawn) [Compound 2] has a viability at 72 h, 5 µM [3] of 95 ± 9%, a viability at 72 h, 10 µM [3] of 82 ± 11% and a viability at 72 h, 25 µM [3] of 87 ± 39%. For the same compound, the viability at 72 h, 50 µM [3] was 49 ± 9%, the IC50 at 72 h [3] was 68.9 µM and the Percentage of effect (NTS; 4 h, 10 μM) was 30.77%. For the same compound, the Percentage of effect (NTS; 4 h, 20 μM) was 38.46%, the Percentage of effect (NTS; 24 h, 10 μM) was 78.57% and the Percentage of effect (NTS; 24 h, 20 μM) was 82.14%. The Percentage of effect (NTS; 48 h, 10 μM) was 87.76%, the Percentage of effect (NTS; 48 h, 20 μM) was 93.88% and the Percentage of effect (NTS; 72 h, 10 μM) was 89.80%. It also gave a Percentage of effect (NTS; 72 h, 20 μM) of 100%, an IC50 (NTS; 4 h) greater than 20 µM and an IC50 (NTS; 24 h) of 5 µM. For the same compound, the IC50 (NTS; 48 h) was 4 µM, the IC50 (NTS; 72 h) was 2.3 µM and the “eggs' number” value (adult worms [4]; 4 h) was 0. For the same compound, the “eggs' number” value (adult worms [4]; 8 h) was 0, the “eggs' number” value (adult worms [4]; 24 h) was 0 and the “eggs' number” value (adult worms [4]; 48 h) was 0. For the same compound, the “eggs' number” value (adult worms [4]; 72 h) was 6, the “effect on worm pairing” value (adult worms [4]; adult worms) was “no impact on worm pairing” and the “Percentage of reduction … 72 h” value ([1]; 0.1 μM) was 43.7 ± 2.1%. The “Percentage of reduction … 72 h” value ([1]; 1 μM) was 56.9 ± 0.9%, the “Percentage of reduction … 72 h” value ([1]; 10 μM) was 98 ± 1.0% and the “Percentage of reduction … 72 h” value ([1]; 20 μM) was 100 ± 0.0%. The IC50 [1] was 0.26 µM, the viability at 72 h, 5 µM [5] was 29 ± 2% and the viability at 72 h, 10 µM [5] was 26 ± 3%. For the same compound, the viability at 72 h, 25 µM [5] was 13 ± 3%, the viability at 72 h, 50 µM [5] was 10 ± 2% and the IC50 at 72 h [5] was 5.9 µM. The IC50 [2, 8] was 0.05 ± 0.01 µM, the IC50 ([6]; 4 h) was greater than 20 µM and the IC50 ([6]; 24 h) was 16.2 µM. The IC50 ([6]; 48 h) was greater than 20 µM, the IC50 ([6]; 72 h) was 5.9 µM and the Percentage of effect ([6]; 4 h, 1 μM) was 20%. The Percentage of effect ([6]; 4 h, 10 μM) was 23.33%, the Percentage of effect ([6]; 4 h, 20 μM) was 43.64% and the Percentage of effect ([6]; 24 h, 1 μM) was 24.14%. The Percentage of effect ([6]; 24 h, 10 μM) was 37.93%, the Percentage of effect ([6]; 24 h, 20 μM) was 57.69% and the Percentage of effect ([6]; 48 h, 1 μM) was 32.69%. The Percentage of effect ([6]; 48 h, 10 μM) was 36.45%, the Percentage of effect ([6]; 48 h, 20 μM) was 56.25% and the Percentage of effect ([6]; 72 h, 1 μM) was 39%. The Percentage of effect ([6]; 72 h, 10 μM) was 39.11%, the Percentage of effect ([6]; 72 h, 20 μM) was 70.83% and the IC50 (adult worms [7]) was greater than 10 µM.
In the case of `NC1CC1c1ccc(NC(=O)c2ccc(-c3ccco3)cc2)cc1` (stereo not drawn) [Compound 3], the “Percentage of reduction … 72 h” value ([1]; 10 μM) is reported as 36.2 ± 0.9%, the “Percentage of reduction … 72 h” value ([1]; 20 μM) is reported as 37.50 ± 0.0% and the IC50 [1] is reported as greater than 20 µM. The IC50 [2, 9] was 2 µM.
In the case of `NC1CC1c1ccc(NC(=O)c2ccc(-c3ccsc3)cc2)cc1` (stereo not drawn) [Compound 4], the “Percentage of reduction … 72 h” value ([1]; 10 μM) is reported as 43.1 ± 0.9%, the “Percentage of reduction … 72 h” value ([1]; 20 μM) is reported as 79.17 ± 0.0% and the IC50 [1] is reported as greater than 10 µM. For the same compound, the IC50 [2, 9] was 0.34 ± 0.11 µM and the IC50 (adult worms [7]) was greater than 10 µM.
In the case of `CN1CCN(c2cc(C(=O)Nc3ccc(C4CC4N)cc3)ccc2NC(=O)OCc2ccccc2)CC1` (stereo not drawn) [Compound 5], the viability at 72 h, 5 µM [3] is reported as 63 ± 33%, the viability at 72 h, 10 µM [3] is reported as 72 ± 18% and the viability at 72 h, 25 µM [3] is reported as 82 ± 11%. For the same compound, the viability at 72 h, 50 µM [3] was 57 ± 10%, the IC50 at 72 h [3] was 55.8 µM and the “Percentage of reduction … 72 h” value ([1]; 1 μM) was 18.0 ± 1.0%. For the same compound, the “Percentage of reduction … 72 h” value ([1]; 10 μM) was 100 ± 0.0%, the “Percentage of reduction … 72 h” value ([1]; 20 μM) was 100 ± 0.0% and the IC50 [1] was 1.35 µM. The viability at 72 h, 5 µM [5] was 75 ± 7%, the viability at 72 h, 10 µM [5] was 59 ± 5% and the viability at 72 h, 25 µM [5] was 58 ± 2%. The viability at 72 h, 50 µM [5] was 39 ± 4%, the IC50 at 72 h [5] was 24.3 µM and the IC50 [2, 8] was 0.09 ± 0.01 µM. For the same compound, the IC50 (adult worms [7]) was 2.23 µM.
For `NC1CC1c1ccc(NC(=O)c2ccn(C(=O)OCc3ccccc3)c2)cc1` (stereo not drawn) [Compound 6], the “Percentage of reduction … 72 h” value ([1]; 10 μM) was 40.0 ± 2.0%, the “Percentage of reduction … 72 h” value ([1]; 20 μM) was 100 ± 0.0% and the IC50 [1] was greater than 10 µM. The IC50 [2, 10] was 0.05 ± 0.004 µM and the IC50 (adult worms [7]) was greater than 20 µM.
With `NC1CC1c1ccc(NC(=O)c2cc3ccccc3n2CC(=O)Nc2ccccc2)cc1` (stereo not drawn) [Compound 7] the “Percentage of reduction … 72 h” value ([1]; 10 μM) was 37.9 ± 0.0%, the “Percentage of reduction … 72 h” value ([1]; 20 μM) was 66.7 ± 4.2% and the IC50 [1] was greater than 10 µM. For the same compound, the IC50 [2, 10] was 0.09 ± 0.01 µM and the IC50 (adult worms [7]) was greater than 20 µM.
